In patent publication US20240124432A1, “HERBICIDAL COMPOUNDS” (SYNGENTA CROP PROTECTION AG, priority 2020, published 2024) one finds pest or weed control data, which are given here for four compounds.

Structures are written as SMILES.

Holding throughout (type): in vivo
The subject of test [1] is EPHHL. Kind of test: Post-emergence biological efficacy. To be noted: Euphorbia heterophylla, 312 h, evaluated after 13 days, read-out: damage to plant (100=total damage to plant; 0=no damage to plant). The method, then: (§1) Seeds of weeds and/or crops were sown in standard soil in pots. After cultivation for 14 days under controlled conditions in a glasshouse (at 24/19° C., day/night; 16 hours light), the plants were sprayed with an aqueous spray solution derived from the formulation of the technical active ingredient in a small amount of acetone and a special solvent and emulsifier mixture referred to as IF50 (11.12% Emulsogen EL360 TM+44.44% N-methylpyrrolidone+44.44% Dowanol DPM glycol ether), to create a 50g/l solution which was then diluted using 0.2% Genapol XO80 as diluent to give the desired final dose of test compound.
(§2) The test plants were then grown under controlled conditions in the glasshouse (at 24/18° C., day/night; 15 hours light; 50% humidity)and watered twice daily. After 13 days the test was evaluated (100=total damage to plant; 0=no damage to plant).

For another test, the system named is ELEIN. Kind of test: Post-emergence biological efficacy. To be noted: 312 h, evaluated after 13 days, read-out: damage to plant (100=total damage to plant; 0=no damage to plant). The protocol: as §1, §2
The test system of test [2] is LOLPE. Briefly: Post-emergence biological efficacy. To be noted: Lolium perenne, 312 h, evaluated after 13 days, read-out: damage to plant (100=total damage to plant; 0=no damage to plant). The method, then: as §1, §2
In test [3] the test system is AMAPA. Kind of test: Post-emergence biological efficacy. The note with it: Amaranthus palmeri, 312 h, evaluated after 13 days, read-out: damage to plant (100=total damage to plant; 0=no damage to plant). The protocol:
as §1, §2

The subject of test [4] is SETFA. Kind of test: Post-emergence biological efficacy. To be noted: Setaria faberi, 312 h, evaluated after 13 days, read-out: damage to plant (100=total damage to plant; 0=no damage to plant). The protocol:
as §1, §2

The subject of test [5] is ECHCG. Kind of test: Post-emergence biological efficacy. The note with it: Echinochloa crus-galli, 312 h, evaluated after 13 days, read-out: damage to plant (100=total damage to plant; 0=no damage to plant). The method, then:
as §1, §2

The next test relates to DIGSA. Kind of test: Post-emergence biological efficacy. To be noted: Digitaria sanguinalis, 312 h, evaluated after 13 days, read-out: damage to plant (100=total damage to plant; 0=no damage to plant). The protocol:
as §1, §2

Another test relates to CHEAL. Kind of test: Post-emergence biological efficacy. The note with it: Chenopodium album, 312 h, evaluated after 13 days, read-out: damage to plant (100=total damage to plant; 0=no damage to plant). The protocol: as §1, §2
The subject of test [6] is IPOHE. Kind of test: Post-emergence biological efficacy. The note with it: Ipomoea hederacea, 312 h, evaluated after 13 days, read-out: damage to plant (100=total damage to plant; 0=no damage to plant). The method, then: as §1, §2
The test system of test [7] is EPHHL. Kind of test: Pre-emergence biological efficacy. The note with it: Euphorbia heterophylla, 312 h, evaluated after 13 days, read-out: damage to plant (100=total damage to plant; 0=no damage to plant). The protocol:
as §1, with “one day” for “14 days”
(§3) The test plants were then grown under controlled conditions in the glasshouse (at 24/18° C., day/night; 15 hours light; 50% humidity) and watered twice daily. After 13 days the test was evaluated (100=total damage to plant; 0=no damage to plant).

Test [8] concerns LOLPE. Briefly: Pre-emergence biological efficacy. The note with it: Lolium perenne, 312 h, evaluated after 13 days, read-out: damage to plant (100=total damage to plant; 0=no damage to plant). The protocol: as §1, with “one day” for “14 days”
as §3

The subject of test [9] is AMAPA. Kind of test: Pre-emergence biological efficacy. The note with it: Amaranthus palmeri, 312 h, evaluated after 13 days, read-out: damage to plant (100=total damage to plant; 0=no damage to plant). The protocol: as §1, with “one day” for “14 days”
as §3

The test system of test [10] is SETFA. Briefly: Pre-emergence biological efficacy. To be noted: Setaria faberi, 312 h, evaluated after 13 days, read-out: damage to plant (100=total damage to plant; 0=no damage to plant). The method, then:
as §1, with “one day” for “14 days”
as §3

Test [11] deals with ECHCG. Kind of test: Pre-emergence biological efficacy. The note with it: Echinochloa crus-galli, 312 h, evaluated after 13 days, read-out: damage to plant (100=total damage to plant; 0=no damage to plant). The method, then: as §1, with “one day” for “14 days”
as §3

Test [12] has as its system IPOHE. Briefly: Pre-emergence biological efficacy. To be noted: Ipomoea hederacea, 312 h, evaluated after 13 days, read-out: damage to plant (100=total damage to plant; 0=no damage to plant). The protocol:
as §1, with “one day” for “14 days”
as §3

`CCOC(=O)C1(C)CC(c2cc(-c3cc(C(F)(F)F)cc(Cl)n3)c(F)cc2Cl)=NO1` (stereo not drawn) [Compound 1-67, Ethyl 3-[2-chloro-5-[6-chloro-4-(trifluoromethyl)-2-pyridyl]-4-fluoro-phenyl]-5-methyl-4H-isoxazole-5-carboxylate]: the pest or weed control at 250 g/ha in the test on EPHHL [1] came out at 40%; in the test on ELEIN it was 0%; with LOLPE [2], 0%; with AMAPA [3], 20%; with SETFA [4], 20%; with ECHCG [5], 0%. Besides, the pest or weed control at 250 g/ha amounted to 10% in the test on DIGSA; 10% with CHEAL; 30% in the test with IPOHE [6]; 0% with EPHHL [7]; 0% with LOLPE [8]; 10% with AMAPA [9]. Besides, the pest or weed control at 250 g/ha in the test on SETFA [10], in the test with ECHCG [11] and in the test on IPOHE [12] was 0% each time.
On to `CCOC(=O)C1(C)CC(c2cc(-c3ccc(C(F)(F)F)cn3)c(F)cc2Cl)=NO1` (stereo not drawn) [Compound 1-79, Ethyl 3-[2-chloro-4-fluoro-5-[5-(trifluoromethyl)-2-pyridyl]phenyl]-5-methyl-4H-isoxazole-5-carboxylate], for which the pest or weed control at 250 g/ha in the test with EPHHL [1] is 100%; in the test on ELEIN, 90%; in the test on LOLPE [2] it was 100%; with AMAPA [3] it was 100%; in the test with SETFA [4], 100%; in the test on ECHCG [5], 100%. The pest or weed control at 250 g/ha in the test with DIGSA came to 100%; with CHEAL, 100%; with IPOHE [6] it was 100%; with EPHHL [7], 60%; in the test with LOLPE [8], 40%; with AMAPA [9], 50%. In addition, the pest or weed control at 250 g/ha stood at 60% in the test with SETFA [10], 80% in the test on ECHCG [11] and 100% in the test with IPOHE [12].
Turning to `CCOC(=O)C1(C)CC(c2cc(-c3ncc(C(F)(F)F)cc3F)c(F)cc2Cl)=NO1` (stereo not drawn) [Compound 1-91, Ethyl 3-[2-chloro-4-fluoro-5-[3-fluoro-5-(trifluoromethyl)-2-pyridyl]-phenyl]-5-methyl-4H-isoxazole-5-carboxylate], the pest or weed control at 250 g/ha in the test on EPHHL [1], in the test on ELEIN, in the test on LOLPE [2], in the test on AMAPA [3], with SETFA [4] and in the test with ECHCG [5] was 100% each time. In addition, the pest or weed control at 250 g/ha stood at 100% with DIGSA; 100% in the test on CHEAL; 100% in the test with IPOHE [6]; 100% in the test with EPHHL [7]; 90% in the test with LOLPE [8]; 100% in the test on AMAPA [9]. Further, the pest or weed control at 250 g/ha in the test with SETFA [10], with ECHCG [11] and in the test on IPOHE [12] was 100% each time.
As to `CCOC(=O)C1(C)CC(c2cc(-c3ncc(C(F)(F)F)cc3Cl)ccc2Cl)=NO1` (stereo not drawn) [Compound 1-99, Ethyl 3-[2-chloro-5-[3-chloro-5-(trifluoromethyl)-2-pyridyl]-phenyl]-5-methyl-4H-isoxazole-5-carboxylate], the pest or weed control at 250 g/ha with EPHHL [1], in the test on ELEIN, in the test with LOLPE [2], with AMAPA [3], with SETFA [4] and in the test with ECHCG [5] was 100% each time. Further, the pest or weed control at 250 g/ha with DIGSA came to 100%; in the test on CHEAL, 100%; with IPOHE [6] it was 100%; with EPHHL [7] it was 100%; in the test with LOLPE [8], 80%; with AMAPA [9] it was 100%. Moreover, the pest or weed control at 250 g/ha in the test with SETFA [10], in the test with ECHCG [11] and with IPOHE [12] was 100% throughout.
